The test system of the assay is MV-4-11 cells. Briefly: Gene expression microarray analysis (Affymetrix PrimeView) and GSEA. Format: cell-based, human. Details: RFU PODN (11730768_x_at) / Fold change /veh PODN (11730768_x_at) / RFU LINC00158 (11744669_a_at) / Fold change /veh LINC00158 (11744669_a_at) / RFU DUSP10 (11751237_a_at) / Fold change /veh DUSP10 (11751237_a_at) / RFU ID3 (11757404_x_at) / Fold change /veh ID3 (11757404_x_at) / RFU PLEKHG5 (11737974_s_at) / Fold change /veh PLEKHG5 (11737974_s_at) / RFU LRRC4B (11730491_at) / Fold change /veh LRRC4B (11730491_at) / RFU GIMAP4 (11747438_a_at) / Fold change /veh GIMAP4 (11747438_a_at) / RFU KRT8 (11758183_x_at) / Fold change /veh KRT8 (11758183_x_at) / RFU CNN1 (11734310_a_at) / Fold change /veh CNN1 (11734310_a_at) / RFU VPS37D (11726825_at) / Fold change /veh VPS37D (11726825_at) / RFU C10orf10 (11716522_x_at) / Fold change /veh C10orf10 (11716522_x_at) / RFU KIR2DL2 /// KIR2DL4 /// KIR2DL5A /// KIR2DL5B /// KIR2DS1 /// KIR2DS2 /// KIR2DS3 /// KIR2DS4 /// KIR3DL3 /// KIR3DL3 /// KIR3DS1 (11738374_at) / Fold change /veh KIR2DL2 /// KIR2DL4 /// KIR2DL5A /// KIR2DL5B /// KIR2DS1 /// KIR2DS2 /// KIR2DS3 /// KIR2DS4 /// KIR3DL3 /// KIR3DL3 /// KIR3DS1 (11738374_at) / RFU C1QL1 (11718748_at) / Fold change /veh C1QL1 (11718748_at) / RFU TMPRSS4 (11747572_a_at) / Fold change /veh TMPRSS4 (11747572_a_at) / RFU HAMP (11756126_x_at) / Fold change /veh HAMP (11756126_x_at) / RFU RNFT2 (11725882_a_at) / Fold change /veh RNFT2 (11725882_a_at) / RFU NR4A2 (11747474_a_at) / Fold change /veh NR4A2 (11747474_a_at) / RFU ABCC12 (11746883_a_at) / Fold change /veh ABCC12 (11746883_a_at) / RFU TMEM136 (11760407_x_at) / Fold change /veh TMEM136 (11760407_x_at) / RFU CLDN22 /// WWC2 (11732394_at) / Fold change /veh CLDN22 /// WWC2 (11732394_at) / RFU HLA-DPB1 (11760878_x_at) / Fold change /veh HLA-DPB1 (11760878_x_at) / RFU SPINT1 (11716480_a_at) / Fold change /veh SPINT1 (11716480_a_at) / RFU GAP43 (11754022_s_at) / Fold change /veh GAP43 (11754022_s_at) / RFU A4GNT (11735810_at) / Fold change /veh A4GNT (11735810_at) / RFU PRB3 (11715151_x_at) / Fold change /veh PRB3 (11715151_x_at) / RFU TUBB4B (11761932_at) / Fold change /veh TUBB4B (11761932_at) / RFU CAPN14 (11732068_a_at) / Fold change /veh CAPN14 (11732068_a_at) / RFU TMCC2 (11721928_a_at) / Fold change /veh TMCC2 (11721928_a_at) / RFU IRGQ (11745062_a_at) / Fold change /veh IRGQ (11745062_a_at) / RFU FAM174B (11720279_a_at) / Fold change /veh FAM174B (11720279_a_at) / RFU TMPRSS4 (11748680_a_at) / Fold change /veh TMPRSS4 (11748680_a_at) / RFU FAM212B (11763350_a_at) / Fold change /veh FAM212B (11763350_a_at) / RFU PLEKHG5 (11743358_a_at) / Fold change /veh PLEKHG5 (11743358_a_at) / RFU ZSCAN30 (11745921_a_at) / Fold change /veh ZSCAN30 (11745921_a_at) / RFU CMKLR1 (11741424_a_at) / Fold change /veh CMKLR1 (11741424_a_at) / RFU LOC101060620 /// MAPK8IP1 (11723275_at) / Fold change /veh LOC101060620 /// MAPK8IP1 (11723275_at) / RFU SPTSSB (11747773_x_at) / Fold change /veh SPTSSB (11747773_x_at) / RFU PRSS12 (11739890_at) / Fold change /veh PRSS12 (11739890_at) / RFU BIN1 (11741810_x_at) / Fold change /veh BIN1 (11741810_x_at) / RFU WNT11 (11732464_a_at) / Fold change /veh WNT11 (11732464_a_at) / RFU C10orf10 (11716521_a_at) / Fold change /veh C10orf10 (11716521_a_at) / RFU C5orf56 (11738089_at) / Fold change /veh C5orf56 (11738089_at) / RFU CYB561 (11721691_x_at) / Fold change /veh CYB561 (11721691_x_at) / RFU ANKRD19P (11752326_a_at) / Fold change /veh ANKRD19P (11752326_a_at) / RFU OR2T12 /// OR2T33 /// OR2T8 (11738714_s_at) / Fold change /veh OR2T12 /// OR2T33 /// OR2T8 (11738714_s_at) / RFU VCAN (11748164_a_at) / Fold change /veh VCAN (11748164_a_at) / RFU JSRP1 (11732532_at) / Fold change /veh JSRP1 (11732532_at) / RFU KRTAP10-11 (11738290_x_at) / Fold change /veh KRTAP10-11 (11738290_x_at) / RFU MYO3A (11730013_a_at) / Fold change /veh MYO3A (11730013_a_at) / RFU EBF3 (11725865_a_at) / Fold change /veh EBF3 (11725865_a_at) / RFU CAMK2N1 (11719241_x_at) / Fold change /veh CAMK2N1 (11719241_x_at) / RFU C5orf56 (11738088_a_at) / Fold change /veh C5orf56 (11738088_a_at) / RFU OLFML3 (11715873_a_at) / Fold change /veh OLFML3 (11715873_a_at) / RFU LOC100653217 /// NTM (11731650_a_at) / Fold change /veh LOC100653217 /// NTM (11731650_a_at) / RFU MAPK11 (11762145_a_at) / Fold change /veh MAPK11 (11762145_a_at) / RFU FIZ1 (11724087_x_at) / Fold change /veh FIZ1 (11724087_x_at) / RFU OASL (11726364_x_at) / Fold change /veh OASL (11726364_x_at) / RFU SOX15 (11748057_x_at) / Fold change /veh SOX15 (11748057_x_at) / RFU CD79A (11719716_a_at) / Fold change /veh CD79A (11719716_a_at) / RFU HIST1H1D (11736915_at) / Fold change /veh HIST1H1D (11736915_at) / RFU CASKIN2 (11723855_a_at) / Fold change /veh CASKIN2 (11723855_a_at) / RFU LOC730098 (11760151_x_at) / Fold change /veh LOC730098 (11760151_x_at) / RFU OR4N2 (11742367_at) / Fold change /veh OR4N2 (11742367_at) / RFU PRRT2 (11749266_a_at) / Fold change /veh PRRT2 (11749266_a_at) / RFU SNX32 (11753110_a_at) / Fold change /veh SNX32 (11753110_a_at) / RFU CDHR5 (11726645_a_at) / Fold change /veh CDHR5 (11726645_a_at) / RFU RCAN1 (11760418_a_at) / Fold change /veh RCAN1 (11760418_a_at) / RFU FAM167A (11723789_a_at) / Fold change /veh FAM167A (11723789_a_at) / RFU FAM26E (11764081_at) / Fold change /veh FAM26E (11764081_at) / RFU ISYNA1 (11749810_s_at) / Fold change /veh ISYNA1 (11749810_s_at) / RFU ACY1 (11761880_at) / Fold change /veh ACY1 (11761880_at) / RFU 11764098_at / Fold change /veh 11764098_at / RFU SAMD14 (11745864_x_at) / Fold change /veh SAMD14 (11745864_x_at) / RFU NPB (11741838_a_at) / Fold change /veh NPB (11741838_a_at) / RFU TMPRSS6 (11731388_a_at) / Fold change /veh TMPRSS6 (11731388_a_at) / RFU KRTAP10-2 (11738614_at) / Fold change /veh KRTAP10-2 (11738614_at) / RFU ARHGAP8 /// PRR5-ARHGAP8 (11727945_x_at) / Fold change /veh ARHGAP8 /// PRR5-ARHGAP8 (11727945_x_at) / RFU KRTAP5-7 /// NADSYN1 (11734609_at) / Fold change /veh KRTAP5-7 /// NADSYN1 (11734609_at) / RFU RASL12 (11751679_a_at) / Fold change /veh RASL12 (11751679_a_at) / RFU CDKN2B (11736163_a_at) / Fold change /veh CDKN2B (11736163_a_at) / RFU PRF1 (11729649_at) / Fold change /veh PRF1 (11729649_at) / RFU, ZNF638 /// ZNF638-IT1 / Fold change vs veh, ZNF638 /// ZNF638-IT1 / RFU, PANK3 / Fold change vs veh, PANK3 / RFU, SH3YL1 / Fold change vs veh, SH3YL1 / RFU, ZEB2 / Fold change vs veh, ZEB2 / RFU, NRIP1 / Fold change vs veh, NRIP1 / RFU, PTTG1IP / Fold change vs veh, PTTG1IP / RFU, CAPN2 / Fold change vs veh, CAPN2 / RFU, MED14 / Fold change vs veh, MED14 / RFU, SNORA58 / Fold change vs veh, SNORA58 / RFU, C1orf63 / Fold change vs veh, C1orf63 / RFU, LRRFIP1 / Fold change vs veh, LRRFIP1 / RFU, NDUFAF7 / Fold change vs veh, NDUFAF7 / RFU, SLC12A2 / Fold change vs veh, SLC12A2 / RFU, IBTK / Fold change vs veh, IBTK / RFU, ESF1 / Fold change vs veh, ESF1 / Fold change vs veh, TMEM50B / RFU, TAOK1 / Fold change vs veh, TAOK1 / RFU, ACBD3 / Fold change vs veh, ACBD3 / RFU, TMA16 / Fold change vs veh, TMA16 / RFU, RWDD3 / Fold change vs veh, RWDD3 / RFU, BCAT1 / Fold change vs veh, BCAT1 / RFU, EDEM3 / Fold change vs veh, EDEM3 / RFU, TMEM33 / Fold change vs veh, TMEM33 / RFU, WDR75 / Fold change vs veh, WDR75 / RFU, AHCTF1 / Fold change vs veh, AHCTF1 / RFU, TFRC / Fold change vs veh, TFRC / RFU, ZDHHC17 / Fold change vs veh, ZDHHC17 / RFU, NOM1 / Fold change vs veh, NOM1 / RFU, ARL8B / Fold change vs veh, ARL8B / RFU, ZBTB11 / Fold change vs veh, ZBTB11 / RFU, TAMM41 / Fold change vs veh, TAMM41 / RFU, KIAA1704 /// LOC100996395 / Fold change vs veh, KIAA1704 /// LOC100996395 / RFU, ING1 / Fold change vs veh, ING1 / RFU, TRMT61B / Fold change vs veh, TRMT61B / RFU, FUBP3 / Fold change vs veh, FUBP3 / RFU, TP53 / Fold change vs veh, TP53 / RFU, TNKS2 / Fold change vs veh, TNKS2 / RFU, ZFP14 / Fold change vs veh, ZFP14 / RFU, ACTR2 / Fold change vs veh, ACTR2 / RFU, PPP3R1 / Fold change vs veh, PPP3R1 / RFU, PIK3R1 / Fold change vs veh, PIK3R1 / RFU, HNRNPA1 / Fold change vs veh, HNRNPA1 / RFU, RNF170 / Fold change vs veh, RNF170 / RFU, ZNF28 / Fold change vs veh, ZNF28 / RFU, RNGTT / Fold change vs veh, RNGTT / RFU, OGT / Fold change vs veh, OGT / RFU, BRD1 / Fold change vs veh, BRD1 / RFU, MARS / Fold change vs veh, MARS / RFU, ZNF655 / Fold change vs veh, ZNF655 / RFU, FAHD1 / Fold change vs veh, FAHD1 / RFU, BDP1 / Fold change vs veh, BDP1 / RFU, LRRCC1 / Fold change vs veh, LRRCC1 / RFU, ARID1A / Fold change vs veh, ARID1A / RFU, ZNF146 / Fold change vs veh, ZNF146 / RFU, ZNF330 / Fold change vs veh, ZNF330 / RFU, GPN3 / Fold change vs veh, GPN3 / RFU, C9orf123 / Fold change vs veh, C9orf123 / RFU, N4BP2L2 / Fold change vs veh, N4BP2L2 / RFU, ARFIP1 / Fold change vs veh, ARFIP1 / RFU, FAM179B / Fold change vs veh, FAM179B / RFU, BCL10 / Fold change vs veh, BCL10 / RFU, UHRF1BP1L / Fold change vs veh, UHRF1BP1L / RFU, BET1 / Fold change vs veh, BET1 / RFU, CNOT2 / Fold change vs veh, CNOT2 / RFU, ZNF268 / Fold change vs veh, ZNF268 / Fold change vs veh, ZNF507 / RFU, DGCR2 / Fold change vs veh, DGCR2 / RFU, WDSUB1 / Fold change vs veh, WDSUB1 / Fold change vs veh, HSP90B1 /// MIR3652 / RFU, ADSS / Fold change vs veh, ADSS / RFU, GK / Fold change vs veh, GK / RFU, ZNF148 / Fold change vs veh, ZNF148 / RFU, TAF9 / Fold change vs veh, TAF9 / RFU, SLC1A5 / Fold change vs veh, SLC1A5 / RFU, SLMO2 / Fold change vs veh, SLMO2 / RFU, ABCC4 / Fold change vs veh, ABCC4 / RFU, LOC101060439 /// RAP1B / Fold change vs veh, LOC101060439 /// RAP1B / RFU, RFX7 / Fold change vs veh, RFX7 / RFU, GTPBP10 / Fold change vs veh, GTPBP10 / RFU, CNEP1R1 / Fold change vs veh, CNEP1R1 / RFU, BIVM-ERCC5 /// ERCC5 / Fold change vs veh, BIVM-ERCC5 /// ERCC5 / RFU, ILF3 / Fold change vs veh, ILF3 / RFU 11762660_at / Fold change /veh 11762660_at / RFU VCAN (11757783_s_at) / Fold change /veh VCAN (11757783_s_at) / RFU DDX43 (11728927_at) / Fold change /veh DDX43 (11728927_at) / RFU KRT8 (11758188_x_at) / Fold change /veh KRT8 (11758188_x_at) / RFU NKD1 (11759106_at) / Fold change /veh NKD1 (11759106_at) / RFU SRD5A1 (11742802_a_at) / Fold change /veh SRD5A1 (11742802_a_at) / RFU TPSAB1 /// TPSB2 (11721975_s_at) / Fold change /veh TPSAB1 /// TPSB2 (11721975_s_at) / RFU GSTM3 (11746129_a_at) / Fold change /veh GSTM3 (11746129_a_at) / RFU IL23R (11737362_x_at) / Fold change /veh IL23R (11737362_x_at) / RFU TMEM51 (11727254_a_at) / Fold change /veh TMEM51 (11727254_a_at) / RFU PIWIL2 (11732686_x_at) / Fold change /veh PIWIL2 (11732686_x_at) / RFU ORM1 (11744905_x_at) / Fold change /veh ORM1 (11744905_x_at) / RFU CCDC152 (11743942_at) / Fold change /veh CCDC152 (11743942_at) / RFU ECM1 (11717891_a_at) / Fold change /veh ECM1 (11717891_a_at) / RFU IL23R (11748794_a_at) / Fold change /veh IL23R (11748794_a_at) / RFU TNFAIP8L3 (11732012_x_at) / Fold change /veh TNFAIP8L3 (11732012_x_at) / RFU MBOAT4 (11741988_at) / Fold change /veh MBOAT4 (11741988_at) / RFU 11764193_at / Fold change /veh 11764193_at / RFU TMEM53 (11763286_at) / Fold change /veh TMEM53 (11763286_at) / RFU MAGEB2 (11727129_at) / Fold change /veh MAGEB2 (11727129_at) / RFU TMEM200A (11744735_a_at) / Fold change /veh TMEM200A (11744735_a_at) / RFU CCDC152 (11751479_a_at) / Fold change /veh CCDC152 (11751479_a_at) / RFU FAM211A (11726209_a_at) / Fold change /veh FAM211A (11726209_a_at) / RFU RGS16 (11746705_a_at) / Fold change /veh RGS16 (11746705_a_at) / RFU VCAN (11755009_s_at) / Fold change /veh VCAN (11755009_s_at) / RFU RHOB (11743442_s_at) / Fold change /veh RHOB (11743442_s_at) / RFU RGS16 (11720943_a_at) / Fold change /veh RGS16 (11720943_a_at) / RFU RGS16 (11720944_at) / Fold change /veh RGS16 (11720944_at) / RFU, VPS4B / Fold change vs veh, VPS4B / RFU, CREB1 / Fold change vs veh, CREB1 / RFU, DNAJC13 / Fold change vs veh, DNAJC13 / RFU, GNAQ / Fold change vs veh, GNAQ / RFU, CDK5R1 / Fold change vs veh, CDK5R1 / RFU, ZRANB3 / Fold change vs veh, ZRANB3 / RFU, CUL4A / Fold change vs veh, CUL4A / RFU, CCNY / Fold change vs veh, CCNY / RFU, UFL1 / Fold change vs veh, UFL1 / RFU, COG3 / Fold change vs veh, COG3 / RFU, DIAPH2 / Fold change vs veh, DIAPH2 / RFU, SKA2 / Fold change vs veh, SKA2 / RFU, AFF3 / Fold change vs veh, AFF3 / RFU, LMF1 / Fold change vs veh, LMF1 / RFU, IPO11 / Fold change vs veh, IPO11 / RFU, DFFB / Fold change vs veh, DFFB / RFU, FOXP1 / Fold change vs veh, FOXP1 / RFU, CARD8 / Fold change vs veh, CARD8 / RFU, STRN3 / Fold change vs veh, STRN3 / RFU, ADK / Fold change vs veh, ADK / RFU, RASSF2 / Fold change vs veh, RASSF2 / RFU, WIPF1 / Fold change vs veh, WIPF1 / RFU, LARP1B / Fold change vs veh, LARP1B / RFU, RASA1 / Fold change vs veh, RASA1 / RFU, RB1 / Fold change vs veh, RB1 / RFU, PPFIA1 / Fold change vs veh, PPFIA1 / RFU, MAT2A / Fold change vs veh, MAT2A / RFU, CCT5 / Fold change vs veh, CCT5 / RFU, WDR92 / Fold change vs veh, WDR92 / RFU, CUX1 / Fold change vs veh, CUX1 / RFU, TTC7A / Fold change vs veh, TTC7A / RFU, TMEM135 / Fold change vs veh, TMEM135 / RFU, DEPTOR / Fold change vs veh, DEPTOR / RFU, CPM / Fold change vs veh, CPM / RFU, DNAJB6 / Fold change vs veh, DNAJB6 / RFU, CACNA2D3 / Fold change vs veh, CACNA2D3 / RFU, DTX4 / Fold change vs veh, DTX4 / RFU, TFCP2 / Fold change vs veh, TFCP2 / RFU, GMCL1 /// GMCL1P1 / Fold change vs veh, GMCL1 /// GMCL1P1 / RFU, AEBP2 / Fold change vs veh, AEBP2 / RFU, SNHG1 /// SNORD22 /// SNORD25 /// SNORD26 /// SNORD27 /// SNORD28 /// SNORD29 /// SNORD31 / Fold change vs veh, SNHG1 /// SNORD22 /// SNORD25 /// SNORD26 /// SNORD27 /// SNORD28 /// SNORD29 /// SNORD31 / Fold change (Aza/veh), C12orf56 (ProbeSet 11735607_a_at) / Fold change (ACY-1035/veh), C12orf56 (ProbeSet 11735607_a_at) / Fold change (Aza/veh), FGFR1OP (ProbeSet 11751329_s_at) / Fold change (ACY-1035/veh), FGFR1OP (ProbeSet 11751329_s_at) / Fold change (Aza/veh), VPS36 (ProbeSet 11739960_a_at) / Fold change (ACY-1035/veh), VPS36 (ProbeSet 11739960_a_at) / RFU SYPL1 (11715823_x_at) / Fold change /veh SYPL1 (11715823_x_at) / RFU IGFBP7 (11715501_s_at) / Fold change /veh IGFBP7 (11715501_s_at) / RFU REEP3 (11722064_at) / Fold change /veh REEP3 (11722064_at) / RFU IGLL1 (11728026_x_at) / Fold change /veh IGLL1 (11728026_x_at): dose or concentration left out as unconfirmed. Particulars: MV-4-11 cells, 48 hours.

Structures are written as SMILES.

As to `Nc1ccc(-c2cccs2)cc1NC(=O)c1ccc2c(c1)cc(C1CC1)n2CCN1CCOCC1` [ACY-1035], the “RFU NKD1 (11759106_at)” value worked out at 19.24 RFU.

The values are drawn from publication PMC5218480 (PLoS ONE, 2017).
